Assay results reported in PMC12051768, “Reduced Renal Uptake of Various Radiopharmaceuticals with Sodium Paraaminohippurate Coadministration in a Rat Model” (Journal of Nuclear Medicine, 2025).
Entries after “also recorded” stand apart in the source; their conditions may differ. Like-named read-outs stand apart in the source and are kept apart here.

Key:
[1] = PET quantification of kidney activity of [^68Ga]Ga-PSMA-11 with NaCl or paraaminohippurate; conditions: for relative change of kidney uptake with 200 mg/mL paraaminohippurate coinjection in comparison to 0.9% NaCl: negative = reduction; for effect of paraaminohippurate coinjection on renal uptake (in words): compared with NaCl coinjection
Experimental: PET experiments were conducted by CROmed Translational Research Center Ltd. Healthy adult male Wistar rats (3 animals per group) received an intraperitoneal priming dose of 1 mL of 0.9% NaCl, 1 mL of paraaminohippurate (200 mg/mL), or 1 mL of Arg-Lys (200 mg/mL), followed by 15–30 MBq of [^68Ga]Ga-PSMA-11 once intravenously in combination with 0.9% NaCl, paraaminohippurate, or Arg-Lys. PET examinations were conducted on an upgraded small-animal PET PRIMATE P4 scanner (Concorde Microsystems Inc.) at 5 min and 0.5, 1, 2, and 4 h after injection.

[2] = set-up: species or system Wistar rats; conditions: male, Wistar, rat, in vivo
Experimental: (§1) Experiments were conducted at the Helmholtz-Zentrum Dresden-Rossendorf, Institute of Radiopharmaceutical Cancer Research (approved by Landesdirektion Dresden, number DD24.1-5131/450/16, July 6, 2018). Groups of 5 male Wistar rats each (average body weight, 210 g) were randomized for coinjection of 0.9% NaCl, Arg-Lys solution (200 mg/mL), or paraaminohippurate solution (200 mg/mL). The animals received an intraperitoneal priming dose of 1.0 mL of 0.9% NaCl, 1.0 mL of Arg-Lys, or 1.0 mL of paraaminohippurate solution 10 min before radiotracer injection. The injection solutions for the biodistribution were prepared as mix of [^177Lu]Lu-DOTATOC solution added to 1.5 mL of NaCl, Arg-Lys, or paraaminohippurate solution. The average injected activity ± SD of [^177Lu]Lu-DOTATOC was 4.32 ± 0.51 MBq/kg in 4 animals, whereas 1 rat per group received 149 ± 15 MBq/kg.
As for paraaminohippurate, 500 mg paraaminohippurate were administered per rat; […] thereof via intravenous injection; this by itself already results in an initial plasma concentration far exceeding the saturating 800 mg/L stated in ([16]). […]
Animals were killed 5 and 60 min after radiotracer injection; organs and tissues of interest were extracted, and their mass and activity were determined. Activities were counted in an automatic γ-counter, which was cross-calibrated with a dose calibrator by 3 standard samples. […]

[3] = SPECT/CT quantification of kidney activity after coinjection of radiotracers with NaCl, Arg-Lys or paraaminohippurate; type: in vivo, Wistar rats; conditions: for relative change of kidney uptake with 200 mg/mL paraaminohippurate coinjection in comparison to 0.9% NaCl: imaging, negative = reduction; for effect of paraaminohippurate coinjection on renal uptake (in words): compared with NaCl coinjection
Experimental: Approximately 10 min later, 50–60 MBq of the ^177Lu-radiolabeled radiopharmaceuticals were injected intravenously in combination with 0.5 mL of 0.9% NaCl, 0.5 mL of paraaminohippurate (200 mg/mL), or 0.5 mL of Arg-Lys (200 mg/mL). At 0.5, 1, 4, 8, and 24 h after injection of the ^177Lu-radiolabeled compounds, SPECT/CT imaging was conducted under isoflurane anesthesia, using Mediso nano-SPECT/CT with a Silver upgrade system (Mediso Kft). VivoQuant version 1.22 software (VivoQuant) was used to determine the volume of interest and to quantify the activity in the kidneys.

[4] = Tolerability of paraaminohippurate coadministration; type: in vivo; conditions: rats, 200 mg/mL solution, intraperitoneal priming plus intravenous coinjection
Experimental: as §1, with “MBq/kg. […]” for “MBq/kg.”
Approximately 10 min later, 50–60 MBq of the ^177Lu-radiolabeled radiopharmaceuticals were injected intravenously in combination with 0.5 mL of 0.9% NaCl, 0.5 mL of paraaminohippurate (200 mg/mL), or 0.5 mL of Arg-Lys (200 mg/mL). […] VivoQuant version 1.22 software (VivoQuant) was used to determine the volume of interest and to quantify the activity in the kidneys.

[5] = glomerular filtration and proximal tubular secretion; cited from earlier work
[6] = set-up: method as in PMID 38637142; conditions: 12 patients treated with [^177Lu]Lu-DOTATOC; cited from earlier work
[7] = NaCl coinjection, AUC within first hour after injection
[8] = PAH coinjection in comparison to NaCl
[9] = PAH coinjection, AUC within first hour after injection
[10] = independent of the coinjected compound
[11] = paraaminohippurate vs NaCl coinjection
[12] = male, Wistar, rat, in vivo, %ID/g of kidney tissue

O=C([O-])CN(CCN(CC(=O)[O-])Cc1cc(CCC(=O)NCCCCCC(=O)NCCCC[C@H](NC(=O)N[C@@H](CCC(=O)O)C(=O)O)C(=O)O)ccc1[O-])Cc1cc(CCC(=O)O)ccc1[O-].[68Ga+3].[OH3+] [[^68Ga]Ga-PSMA-11]
relative change of kidney uptake with 200 mg/mL paraaminohippurate coinjection in comparison to 0.9% NaCl ([1]; 5 min): −21%
relative change of kidney uptake with 200 mg/mL paraaminohippurate coinjection in comparison to 0.9% NaCl ([1]; 0.5 h): −23%
relative change of kidney uptake with 200 mg/mL paraaminohippurate coinjection in comparison to 0.9% NaCl ([1]; 1 h): −37%
relative change of kidney uptake with 200 mg/mL paraaminohippurate coinjection in comparison to 0.9% NaCl ([1]; 2 h): −5%
relative change of kidney uptake with 200 mg/mL paraaminohippurate coinjection in comparison to 0.9% NaCl ([1]; 4 h): +15%
kidney AUC0–1 h, NaCl [1, 7]: 45.9 %ID/g*h
kidney AUC0–1 h, Difference [1, 8]: −19%
kidney AUC0–1 h, PAH [1, 9]: 37.1 %ID/g*h
effect of paraaminohippurate coinjection on renal uptake (in words) [1]: To a lesser extent, paraaminohippurate-mediated nephroprotection was observed
effect of paraaminohippurate coinjection on renal uptake (in words) ([1]; listed as PSMA-11): reduced
time of peak kidney activity after injection [1, 10]: 0.5 h
reduction of kidney AUC within the first hour after injection [1, 11]: 19%

C[C@@H](O)[C@@H]1NC(=O)[C@H](CCCCN)NC(=O)[C@@H](Cc2c[nH]c3ccccc23)NC(=O)[C@H](Cc2ccc(O)cc2)NC(=O)[C@@H](NC(=O)[C@@H](Cc2ccccc2)NC(=O)CN2CCN(CC(=O)O)CCN(CC(=O)O)CCN(CC(=O)O)CC2)CSSC[C@@H](C(=O)N[C@H](CO)[C@@H](C)O)NC1=O [[^177Lu]Lu-DOTATOC, metal not drawn]
kidney uptake ([2]; 5 min): 2.93 ± 0.42 %ID/g
kidney uptake ([2]; 1 h): 2.16 ± 0.31 %ID/g
%ID/g of kidney tissue ([3]; male, Wistar, rat, in vivo, 0.5 h): 13.3 (8.4) %ID/g
%ID/g of kidney tissue ([3]; male, Wistar, rat, in vivo, 8 h): 2.7 (0.0) %ID/g
tissue uptake at 1 h [3, 12]: 12.2 %ID/g
tissue uptake at 4 h [3, 12]: 2.7 %ID/g
tissue uptake at 24 h [3, 12]: 2.4 %ID/g
kidney AUC0–24 h, Difference ([3]; rat, in vivo): −51%
kidney AUC0–24 h, NaCl ([3]; rat, in vivo): 87.0 %ID/g*h
kidney AUC0–24 h, PAH ([3]; rat, in vivo): 43.0 %ID/g*h
time of peak / maximum kidney activity after injection ([3]; rat, in vivo): 0.5 h

O=C([O-])CC[C@H](NC(=O)N[C@@H](CCCCNC(=O)CCCCCCC(=O)NCCCC[C@@H](NC(=O)[C@@H](Cc1ccccc1)NC(=O)[C@@H](Cc1ccc(O)c(I)c1)NC(=O)CC[C@H](C(=O)[O-])N1CCN(CC(=O)[O-])CCN(CC(=O)[O-])CCN(CC(=O)[O-])CC1)C(=O)[O-])C(=O)[O-])C(=O)[O-].[177Lu+3].[H+].[H+].[H+].[H+].[H+] [[^177Lu]Lu-PSMA-I&T]
relative change of kidney uptake with 200 mg/mL paraaminohippurate coinjection in comparison to 0.9% NaCl ([3]; 0.5 h): −18%
relative change of kidney uptake with 200 mg/mL paraaminohippurate coinjection in comparison to 0.9% NaCl ([3]; 1 h): −22%
relative change of kidney uptake with 200 mg/mL paraaminohippurate coinjection in comparison to 0.9% NaCl ([3]; 4 h): −61%
kidney AUC0–1 h, NaCl [3, 7]: 64.7 %ID/g*h
kidney AUC0–1 h, Difference [3, 8]: −34%
kidney AUC0–1 h, PAH [3, 9]: 42.8 %ID/g*h
effect of paraaminohippurate coinjection on renal uptake (in words) [3]: To a lesser extent, paraaminohippurate-mediated nephroprotection was observed
effect of paraaminohippurate coinjection on renal uptake (in words) ([3]; listed as PSMA-I&T): reduced
time of peak / maximum kidney activity after injection [3, 10]: 0.5 h
reduction of kidney AUC within the first hour after injection [3, 11]: 34%

Nc1ccc(C(=O)NCC(=O)[O-])cc1.[Na+] [paraaminohippurate, sodium paraaminohippurate]
tolerability / toxicity of coadministration [4]: well tolerated, and no immediate or delayed toxicity was observed
tolerability / toxicity of coadministration ([4]; listed as Paraaminohippurate): well tolerated, with no toxicity observed
fraction filtered by the kidney from the plasma in a single pass-through [5]: more than 90%
kidney uptake of the radiolabeled compound versus Arg-Lys solution [6]: comparable
tolerability in patients [6]: well tolerated

[^177Lu]Lu-DOTATATE
relative change of kidney uptake with 200 mg/mL paraaminohippurate coinjection in comparison to 0.9% NaCl ([3]; 0.5 h): −80%
relative change of kidney uptake with 200 mg/mL paraaminohippurate coinjection in comparison to 0.9% NaCl ([3]; 1 h): −83%
relative change of kidney uptake with 200 mg/mL paraaminohippurate coinjection in comparison to 0.9% NaCl ([3]; 4 h): −56%
relative change of kidney uptake with 200 mg/mL paraaminohippurate coinjection in comparison to 0.9% NaCl ([3]; 8 h): −49%
relative change of kidney uptake with 200 mg/mL paraaminohippurate coinjection in comparison to 0.9% NaCl ([3]; 24 h): −46%
kidney AUC0–24 h, NaCl ([3]; NaCl coinjection, AUC within 24 h after injection): 113.7 %ID/g*h
kidney AUC0–24 h, Difference [3, 8]: −60%
kidney AUC0–24 h, PAH ([3]; PAH coinjection, AUC within 24 h after injection): 45.4 %ID/g*h
effect of paraaminohippurate coinjection on renal uptake (in words) [3]: significantly lower; also recorded: markedly diminished; also recorded: significantly reduced
time of peak / maximum kidney activity after injection [3, 10]: 0.5 h
